These results are taken from patent US20090137572A1, “2-substituted-4-heteroaryl-pyrimidines useful for the treatment of proliferative disorders” (priority 2004, published 2009).

Structures are written as SMILES.

For one data set, the target named is GSK3b (Homo sapiens, UniProt P49841). Kind of data set: Kinase assay (radioactive phosphate incorporation), GSK-3b. The data set is classed as biochemical. The conditions noted are these: read-out: Kinase Inhibition pIC50 GSK-3b (converted). As for the experimental part: (§1) Kinase assays. The compounds of the invention above were investigated for their ability to inhibit the enzymatic activity of various protein kinases (Table 2). This was achieved by measurement of incorporation of radioactive phosphate from ATP into appropriate polypeptide substrates. Recombinant protein kinases and kinase complexes were produced or obtained commercially. Assays were performed using 96-well plates and appropriate assay buffers (typically 25 mM β-glycerophosphate, 20 mM MOPS, 5 mM EGTA, 1 mM DTT, 1 mM […], pH 7.4), into which were added 2-4 μg of active enzyme with appropriate substrates. The reactions were initiated by addition of Mg/ATP mix (15 mM MgCl2+100 μM ATP with 30-50 kBq per well of [γ-^32P]-ATP) and mixtures incubated as required at 30° C. Reactions were stopped on ice, followed by filtration through p81 filterplates or GF/C filterplates (Whatman Polyfiltronics, Kent, UK). After washing 3 times with 75 mM aq orthophosphoric acid, plates were dried, scintillant added and incorporated radioactivity measured in a scintillation counter (TopCount, Packard Instruments, Pangbourne, Berks, UK). Compounds for kinase assay were made up as 10 mM stocks in DMSO and diluted into 10% DMSO in assay buffer.
Chain of GSK3b (P49841 whole entry, species assumed): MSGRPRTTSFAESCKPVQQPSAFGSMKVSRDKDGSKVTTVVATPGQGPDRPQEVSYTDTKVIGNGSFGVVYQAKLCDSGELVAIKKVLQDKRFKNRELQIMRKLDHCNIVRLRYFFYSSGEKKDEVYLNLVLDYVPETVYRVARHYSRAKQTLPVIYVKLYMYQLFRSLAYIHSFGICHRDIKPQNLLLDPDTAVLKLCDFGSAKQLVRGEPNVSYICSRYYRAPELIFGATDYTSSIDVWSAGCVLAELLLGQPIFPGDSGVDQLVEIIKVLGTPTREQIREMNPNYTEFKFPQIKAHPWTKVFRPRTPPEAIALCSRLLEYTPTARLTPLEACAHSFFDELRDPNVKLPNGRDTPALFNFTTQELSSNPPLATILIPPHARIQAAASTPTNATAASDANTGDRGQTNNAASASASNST

The next data set addresses CDK9/cyclin T1 (Homo sapiens, UniProt P50750). Kind of data set: CDK 9 assay (CTD peptide substrate). The data set is classed as biochemical. To be noted: read-out: Kinase Inhibition pIC50 CDK9-cyclin T1 (converted). Put shortly: (§2)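 Inhibition measured against recombinant human kinase/cyclin complex phosphorylating biotin-(Tyr-Ser-Pro-Thr-Ser-Pro-Ser)4 peptide, 100 μM radiolabelled ATP, 45 min at 30° C. Product quantified by filter capture and scintillation counting.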

Another data set concerns the target CDK7/cyclin H (Homo sapiens, UniProt P50613). Kind of data set: CDK 7 assay (CTD peptide substrate). The data set is classed as biochemical. The conditions noted are these: read-out: Kinase Inhibition pIC50 CDK7-cyclin H (converted). Put shortly: as §2
The target of a further data set is T1, Aurora A kinase (Homo sapiens, UniProt O14965).
T1 construct: purchased
T1 sequence (O14965 1-403): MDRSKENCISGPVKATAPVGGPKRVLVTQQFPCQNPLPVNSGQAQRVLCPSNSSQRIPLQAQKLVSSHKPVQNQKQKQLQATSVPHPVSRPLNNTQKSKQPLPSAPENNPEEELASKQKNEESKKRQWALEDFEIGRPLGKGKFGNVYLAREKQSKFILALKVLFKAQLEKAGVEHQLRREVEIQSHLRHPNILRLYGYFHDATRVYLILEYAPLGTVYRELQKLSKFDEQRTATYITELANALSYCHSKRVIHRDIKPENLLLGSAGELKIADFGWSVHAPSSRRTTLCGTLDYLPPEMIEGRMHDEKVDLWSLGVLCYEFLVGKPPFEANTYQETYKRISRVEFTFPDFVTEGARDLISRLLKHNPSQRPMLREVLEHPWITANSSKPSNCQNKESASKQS
In words: Aurora-A (human) kinase assay (Kemptide substrate). The data set is classed as biochemical. The conditions noted are these: pIC50 is -log(IC50, M); 15 μM ATP; read-out: Kinase Inhibition pIC50 Aurora A kinase (converted). Put shortly:
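Kemptide (LRRASLG, 200 μM) phosphorylation by 5-10 ng commercial aurora-A measured as [γ-33P] incorporation at 15 μM ATP with 10 mM Mg acetate, pH 7.0 MOPS buffer. Reaction ran 40 min at room temperature; acid-stopped, captured on P81 filters, scintillation read.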

Data set [1] addresses T2, Flt3 (FMS-like tyrosine kinase-3) (Homo sapiens, UniProt P36888).
T2 sequence (P36888 27-993): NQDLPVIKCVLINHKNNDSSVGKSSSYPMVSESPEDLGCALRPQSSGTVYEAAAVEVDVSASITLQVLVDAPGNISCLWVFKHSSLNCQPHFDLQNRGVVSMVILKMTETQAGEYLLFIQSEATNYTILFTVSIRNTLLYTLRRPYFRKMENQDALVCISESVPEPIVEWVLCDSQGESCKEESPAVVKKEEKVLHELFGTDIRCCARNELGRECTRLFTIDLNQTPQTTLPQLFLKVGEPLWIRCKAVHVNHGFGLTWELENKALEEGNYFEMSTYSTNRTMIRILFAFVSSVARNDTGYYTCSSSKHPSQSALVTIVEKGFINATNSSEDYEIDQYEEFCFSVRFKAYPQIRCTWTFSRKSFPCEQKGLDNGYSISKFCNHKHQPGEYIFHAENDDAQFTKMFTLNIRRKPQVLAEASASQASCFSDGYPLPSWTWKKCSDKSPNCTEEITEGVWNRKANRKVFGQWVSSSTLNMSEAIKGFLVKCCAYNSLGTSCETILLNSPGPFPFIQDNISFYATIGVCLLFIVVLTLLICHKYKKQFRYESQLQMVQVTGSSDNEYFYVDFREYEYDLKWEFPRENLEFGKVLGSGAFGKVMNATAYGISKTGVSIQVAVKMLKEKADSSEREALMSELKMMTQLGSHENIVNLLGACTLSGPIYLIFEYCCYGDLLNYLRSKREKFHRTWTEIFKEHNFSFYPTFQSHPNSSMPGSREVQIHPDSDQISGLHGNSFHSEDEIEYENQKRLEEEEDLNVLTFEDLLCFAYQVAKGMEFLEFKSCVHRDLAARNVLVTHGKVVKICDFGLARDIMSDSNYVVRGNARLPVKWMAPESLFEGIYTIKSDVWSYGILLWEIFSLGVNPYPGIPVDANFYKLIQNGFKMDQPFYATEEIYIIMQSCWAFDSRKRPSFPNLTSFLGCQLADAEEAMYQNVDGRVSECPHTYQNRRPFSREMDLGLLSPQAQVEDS
Kind of data set: Kinase assay (radioactive phosphate incorporation), Flt3. To be noted: pIC50 is -log(IC50, M), read-out: Kinase Inhibition pIC50 Flt3 (converted). Format: biochemical. As for the experimental part:
as §1

A further data set concerns the target CDK2-cycline E (Homo sapiens, UniProt P24941). Kind of data set: Kinase assay (radioactive phosphate incorporation), CDK2-cyclin E. The data set is classed as biochemical. To be noted: read-out: Kinase Inhibition pIC50 CDK2-cycline E (converted). Put shortly: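 Each recombinant kinase was combined with its polypeptide substrate in pH 7.4 assay buffer. Mg/ATP mix carrying [γ-32P]-ATP (100 μM ATP) was then added and the plate incubated at 30° C. After stopping on ice, the reaction was filtered, washed with 75 mM orthophosphoric acid, dried and counted.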

In the next data set the target is CDK4-cyclin D1 (Homo sapiens, UniProt P11802). In words: Kinase assay (radioactive phosphate incorporation), CDK4-cyclin D1. To be noted: read-out: Kinase Inhibition pIC50 CDK4-cyclin D1 (converted). Format: biochemical. As for the experimental part: as §1
Chain of CDK4-cyclin D1 (P11802 whole entry): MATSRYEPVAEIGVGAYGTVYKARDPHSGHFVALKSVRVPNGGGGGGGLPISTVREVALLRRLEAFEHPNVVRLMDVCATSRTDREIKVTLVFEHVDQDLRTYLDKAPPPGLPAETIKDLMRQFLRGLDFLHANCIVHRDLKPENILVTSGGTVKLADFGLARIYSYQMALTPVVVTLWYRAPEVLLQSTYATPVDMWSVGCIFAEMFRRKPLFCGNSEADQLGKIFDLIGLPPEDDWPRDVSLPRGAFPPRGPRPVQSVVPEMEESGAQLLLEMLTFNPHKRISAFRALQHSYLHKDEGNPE
Chain of CDK4-cyclin D1 (P24385 whole entry partner): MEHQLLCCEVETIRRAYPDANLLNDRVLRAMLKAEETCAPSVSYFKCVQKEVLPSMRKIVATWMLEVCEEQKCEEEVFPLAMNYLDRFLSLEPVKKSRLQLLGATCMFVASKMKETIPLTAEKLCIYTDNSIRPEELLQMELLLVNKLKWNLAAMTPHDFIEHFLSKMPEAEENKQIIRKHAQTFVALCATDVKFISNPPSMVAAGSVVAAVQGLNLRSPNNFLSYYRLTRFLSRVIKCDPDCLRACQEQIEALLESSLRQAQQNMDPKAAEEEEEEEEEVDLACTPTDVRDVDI
The target in the next data set is CDK1-cyclin B (Homo sapiens, UniProt P06493). Kind of data set: Kinase assay (radioactive phosphate incorporation), CDK1-cyclin B. The data set is classed as biochemical. The conditions noted are these: read-out: Kinase Inhibition pIC50 CDK1-cyclin B (converted). As for the experimental part:
as §1

Chain of CDK9/cyclin T1 (P50750 whole entry): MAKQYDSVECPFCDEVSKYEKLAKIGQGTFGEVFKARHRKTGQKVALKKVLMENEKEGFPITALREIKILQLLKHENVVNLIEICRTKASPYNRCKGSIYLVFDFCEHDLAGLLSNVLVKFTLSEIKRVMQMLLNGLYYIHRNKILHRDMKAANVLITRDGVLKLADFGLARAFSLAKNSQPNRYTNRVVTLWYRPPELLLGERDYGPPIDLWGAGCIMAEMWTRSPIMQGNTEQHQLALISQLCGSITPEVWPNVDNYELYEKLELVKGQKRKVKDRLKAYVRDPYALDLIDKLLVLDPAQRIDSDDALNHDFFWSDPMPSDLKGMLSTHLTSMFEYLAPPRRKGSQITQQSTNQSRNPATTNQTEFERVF
Chain of CDK9/cyclin T1 (O60563 whole entry partner): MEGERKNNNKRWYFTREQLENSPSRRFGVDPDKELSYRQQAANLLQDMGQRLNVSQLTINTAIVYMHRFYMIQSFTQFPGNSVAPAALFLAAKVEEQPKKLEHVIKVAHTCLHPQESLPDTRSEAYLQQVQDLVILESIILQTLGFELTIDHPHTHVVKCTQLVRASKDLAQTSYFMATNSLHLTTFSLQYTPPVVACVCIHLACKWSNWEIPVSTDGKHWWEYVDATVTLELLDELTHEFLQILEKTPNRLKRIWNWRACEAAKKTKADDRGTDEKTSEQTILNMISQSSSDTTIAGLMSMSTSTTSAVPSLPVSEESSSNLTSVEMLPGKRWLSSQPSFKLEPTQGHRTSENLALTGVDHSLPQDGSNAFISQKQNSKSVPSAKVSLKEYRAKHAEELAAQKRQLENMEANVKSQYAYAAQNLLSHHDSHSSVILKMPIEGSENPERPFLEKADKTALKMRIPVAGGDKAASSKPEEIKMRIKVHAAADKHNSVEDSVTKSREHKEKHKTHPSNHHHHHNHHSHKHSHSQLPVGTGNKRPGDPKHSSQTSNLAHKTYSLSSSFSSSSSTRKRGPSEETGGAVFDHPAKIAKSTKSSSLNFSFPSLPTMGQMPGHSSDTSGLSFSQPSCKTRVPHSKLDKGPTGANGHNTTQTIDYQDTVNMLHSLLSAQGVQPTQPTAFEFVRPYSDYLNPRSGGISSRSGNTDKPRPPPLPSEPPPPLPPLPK
Chain of CDK7/cyclin H (P50613 whole entry): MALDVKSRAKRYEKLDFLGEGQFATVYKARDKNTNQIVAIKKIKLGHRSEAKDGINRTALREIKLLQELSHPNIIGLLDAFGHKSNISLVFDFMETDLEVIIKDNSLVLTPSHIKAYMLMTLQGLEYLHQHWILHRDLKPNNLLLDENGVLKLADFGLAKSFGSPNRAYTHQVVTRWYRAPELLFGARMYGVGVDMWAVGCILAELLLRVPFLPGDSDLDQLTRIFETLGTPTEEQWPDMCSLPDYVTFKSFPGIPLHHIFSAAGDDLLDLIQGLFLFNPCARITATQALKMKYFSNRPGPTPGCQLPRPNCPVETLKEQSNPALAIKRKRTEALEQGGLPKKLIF
Chain of CDK7/cyclin H (P51946 whole entry partner): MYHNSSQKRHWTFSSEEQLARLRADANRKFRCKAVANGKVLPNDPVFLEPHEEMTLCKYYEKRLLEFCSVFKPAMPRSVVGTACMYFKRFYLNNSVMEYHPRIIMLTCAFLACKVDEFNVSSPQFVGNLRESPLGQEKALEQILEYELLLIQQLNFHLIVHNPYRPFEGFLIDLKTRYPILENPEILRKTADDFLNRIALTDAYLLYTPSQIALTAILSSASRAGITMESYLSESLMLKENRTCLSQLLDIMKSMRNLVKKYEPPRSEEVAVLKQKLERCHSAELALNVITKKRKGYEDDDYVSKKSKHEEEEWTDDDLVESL
Chain of CDK1-cyclin B (P06493 whole entry): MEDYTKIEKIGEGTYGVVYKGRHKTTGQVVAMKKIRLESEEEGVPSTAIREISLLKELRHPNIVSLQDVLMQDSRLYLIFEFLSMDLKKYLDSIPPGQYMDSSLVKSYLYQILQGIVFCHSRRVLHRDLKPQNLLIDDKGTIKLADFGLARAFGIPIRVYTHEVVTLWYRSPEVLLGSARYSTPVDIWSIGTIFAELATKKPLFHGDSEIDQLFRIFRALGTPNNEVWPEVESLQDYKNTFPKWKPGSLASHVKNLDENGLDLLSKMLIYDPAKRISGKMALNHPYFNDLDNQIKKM
Chain of CDK1-cyclin B (P14635 whole entry partner): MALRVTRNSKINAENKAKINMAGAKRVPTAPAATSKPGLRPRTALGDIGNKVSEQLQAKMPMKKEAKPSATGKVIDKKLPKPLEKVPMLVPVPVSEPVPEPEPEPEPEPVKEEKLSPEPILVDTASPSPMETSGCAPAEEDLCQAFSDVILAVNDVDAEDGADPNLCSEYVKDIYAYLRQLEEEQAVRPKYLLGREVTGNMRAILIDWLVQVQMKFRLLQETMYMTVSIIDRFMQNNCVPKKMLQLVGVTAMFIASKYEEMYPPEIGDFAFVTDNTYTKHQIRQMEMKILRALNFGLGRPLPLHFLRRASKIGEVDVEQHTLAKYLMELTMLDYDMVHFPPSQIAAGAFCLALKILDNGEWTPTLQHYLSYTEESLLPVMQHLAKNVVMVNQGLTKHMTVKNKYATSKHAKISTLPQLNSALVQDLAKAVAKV

For the compound `CCNc1nc(C)c(-c2ccnc(Nc3ccc(C)c(S(=O)(=O)N4CCOCC4)c3)n2)s1` [Compound 36, [4-(2-Ethylamino-4-methyl-thiazol-5-yl)-pyrimidin-2-yl]-[4-methyl-3-(morpholine-4-sulfonyl)-phenyl]-amine], the IC50 at GSK3b is 3.98 µM; at CDK9/cyclin T1, 0.0398 µM; at CDK7/cyclin H it was 1.26 µM; at Aurora A kinase, 0.0126 µM.
Consider `Cc1nc(C)c(-c2ccnc(Nc3cccc(CNC(=O)c4ccccn4)c3)n2)s1` [Compound 91, Pyridine-2-carboxylic acid 3-[4-(2,4-dimethyl-thiazol-5-yl)-pyrimidin-2-ylamino]-benzylamide], for which the IC50 was 3.98 µM at GSK3b, 0.251 µM in data set [1], 0.398 µM on CDK2-cycline E and 0.794 µM at Aurora A kinase.
On to `Cc1nc(-c2cccnc2)sc1-c1ccnc(Nc2ccc(N3CCOCC3)cc2)n1` [Compound 100, [4-(4-Methyl-2-pyridin-3-yl-thiazol-5-yl)-pyrimidin-2-yl]-(4-morpholin-4-yl-phenyl)-amine], for which the melting point (in general, the temperature, or range, at which the solid turns liquid) was 240 to 242 °C. The IC50 in [1] is 0.316 µM. Further, at Aurora A kinase, the IC50 is 0.251 µM.
With `CC(=O)N1CCN(c2ccc(Nc3nccc(-c4sc(N(C)c5cccnc5)nc4C)n3)cc2)CC1` [Compound 164, 1-[4-(4-{4-[4-Methyl-2-(methyl-pyridin-3-yl-amino)-thiazol-5-yl]pyrimidin-2-ylamino}-phenyl)-piperazin-1-yl]-ethanone], the melting point was 205 to 206 °C. The IC50 in [1] is 0.0251 µM. In addition, the IC50 at CDK2-cycline E is 0.398 µM. Besides, the IC50 at CDK9/cyclin T1 was 2 µM. Further, at CDK7/cyclin H, the IC50 was 3.98 µM. In addition, the IC50 at Aurora A kinase is 0.0316 µM.
In turn, `CC(=O)N1CCN(c2ccc(Nc3nccc(-c4sc(NCCc5ccccc5)nc4C)n3)cc2)CC1` [Compound 163, 1-(4-{4-[4-(4-Methyl-2-phenethylamino-thiazol-5-yl)-pyrimidin-2-ylamino]-phenyl}-piperazin-1-yl)-ethanone] yielded a melting point of 212 to 213 °C. The IC50 in data set [1] was 0.126 µM. For the same compound, the IC50 on CDK2-cycline E is 1.26 µM. Moreover, on CDK9/cyclin T1, the IC50 is 0.631 µM. For the same compound, the IC50 at CDK7/cyclin H was 2.51 µM. Moreover, at Aurora A kinase, the IC50 is 0.0631 µM.
As for `CCNc1nc(C)c(-c2ccnc(NCc3cccnc3)n2)s1` [Compound 79, [4-(2-Ethylamino-4-methyl-thiazol-5-yl)-pyrimidin-2-yl]-pyridin-3-ylmethyl-amine], the IC50 at CDK2-cycline E was 6.31 µM; at CDK9/cyclin T1, 1.58 µM; at CDK7/cyclin H, 6.31 µM; on CDK4-cyclin D1, 3.16 µM.
Turning to `CC(=O)N1CCN(c2ccc(Nc3nccc(-c4sc(N)nc4C)n3)cc2)CC1` [Compound 57, 1-(4-{4-[4-(2-Amino-4-methyl-thiazol-5-yl)-pyrimidin-2-ylamino]-phenyl}-piperazin-1-yl)-ethanone], the IC50 is 10 µM on CDK9/cyclin T1; 15.8 µM on CDK7/cyclin H; 0.0631 µM at Aurora A kinase; 10 µM on CDK4-cyclin D1; 79.4 µM at CDK1-cyclin B.
Consider `CCNc1nc(C)c(-c2ccnc(Nc3cccc(S(=O)(=O)NC(C)(C)CO)c3)n2)s1` [Compound 84, 3-[4-(2-Ethylamino-4-methyl-thiazol-5-yl)-pyrimidin-2-ylamino]-N-(2-hydroxy-1,1-dimethyl-ethyl)-benzenesulfonamide], for which the IC50 at GSK3b was 2.51 µM; at CDK2-cycline E it was 0.631 µM; on CDK9/cyclin T1, 0.158 µM; on CDK7/cyclin H, 1.58 µM; on Aurora A kinase, 0.0251 µM.
`COc1cc(Nc2nccc(-c3sc(N)nc3C)n2)cc(OC)c1` [Compound 161, [4-(2-Amino-4-methyl-thiazol-5-yl)-pyrimidin-2-yl]-(3,5-dimethoxy-phenyl)-amine]: the melting point fell in the range of 269 to 271 °C. Moreover, the IC50 in [1] was 0.00501 µM. Also, the IC50 on CDK2-cycline E is 0.158 µM. Further, the IC50 at Aurora A kinase is 0.1 µM.
Take `CCNc1nc(C)c(-c2ccnc(Nc3cccc(S(=O)(=O)NCC)c3)n2)s1` [Compound 29, N-Ethyl-3-[4-(2-ethylamino-4-methyl-thiazol-5-yl)-pyrimidin-2-ylamino]-benzenesulfonamide]: the IC50 in data set [1] is 1 µM; on CDK2-cycline E it was 0.316 µM; at CDK9/cyclin T1, 0.01 µM; on CDK7/cyclin H it was 0.794 µM; at Aurora A kinase, 0.0501 µM; on CDK4-cyclin D1 it was 0.398 µM.
`COc1cc(Nc2nccc(-c3sc(NCCc4ccccc4)nc3C)n2)cc(OC)c1OC` [Compound 165, [4-(4-Methyl-2-phenethylamino-thiazol-5-yl)-pyrimidin-2-yl]-(3,4,5-trimethoxy-phenyl)-amine] returned a melting point of 184 to 186 °C. The IC50 in [1] was 0.02 µM. Also, at CDK2-cycline E, the IC50 was 2.51 µM. Also, the IC50 on Aurora A kinase is 0.0631 µM.
`CCNc1nc(C)c(-c2ccnc(Nc3cccc(S(=O)(=O)NCc4ccccc4)c3)n2)s1` [Compound 80, N-Benzyl-3-[4-(2-ethylamino-4-methyl-thiazol-5-yl)-pyrimidin-2-ylamino]-benzenesulfonamide]: the IC50 at GSK3b was 2.51 µM; at CDK9/cyclin T1, 0.251 µM; at Aurora A kinase, 0.398 µM.
`CCNc1nc(C)c(-c2ccnc(Nc3cc(OC)c(OC)c(OC)c3)n2)s1` [Compound 24, [4-(2-Ethylamino-4-methyl-thiazol-5-yl)-pyrimidin-2-yl]-(3,4,5-trimethoxy-phenyl)-amine]: the IC50 was 0.00794 µM in [1], 0.0316 µM at CDK9/cyclin T1, 0.00251 µM at Aurora A kinase and 2 µM at CDK1-cyclin B.
